From the supplement of paper PMC11061612

Tests used:
[1] = tested on: NCI-H2170 (Squamous Cell Lung Carcinoma); test: Bliss excess, mean over the matrix (fraction); higher = more synergy
Summary of the method: (§1)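 Cell lines grown in DMEM/F12 or RPMI with 10% FBS were plated in 1536-well plates and held 24 hours at 37°C, 5% CO2 before 72 hours of exposure to two-drug dose matrices, with DMSO typically at 0.2%. CellTiter-Glo 2.0 luminescence gave viability, which was converted to inhibition. Vehicle wells were set to 0 and blank wells to 1. Combination Emax is the second-highest inhibition in the matrix, and Bliss excess is the observed combination effect minus the expected EA + EB − EA·EB, where EA and EB are the single-agent effects.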

[2] = tested on: GRANTA-519 (B-Cell Non-Hodgkin's Lymphoma); test: as above
Summary of the method: as §1

[3] = tested on: MDA-MB-175-VII (Breast Carcinoma); test: as above
Summary of the method: as §1

[4] = tested on: SUP-HD1 (Hodgkin's Lymphoma); test: as above
Summary of the method: as §1

[5] = tested on: JJN-3 (Plasma Cell Myeloma); test: as above
Summary of the method: as §1

MG-63 (Osteosarcoma) = test: as above
Summary of the method: as §1

[6] = tested on: NCI-H1648 (Lung Adenocarcinoma); test: as above
Summary of the method: as §1

[7] = tested on: TK (B-Cell Non-Hodgkin's Lymphoma); test: as above
Summary of the method: as §1

[8] = tested on: L-363 (Plasma Cell Myeloma); test: as above
Summary of the method: as §1

[9] = tested on: Daudi (Burkitt's Lymphoma); test: as above
Summary of the method: as §1

[10] = tested on: COR-L105 (Lung Adenocarcinoma); test: combination Emax (second highest fraction inhibited in the dose matrix, 72 h); higher = more inhibition; extreme values may be limits of the assay
Summary of the method: as §1

[11] = tested on: GRANTA-519 (B-Cell Non-Hodgkin's Lymphoma); test: as above
Summary of the method: as §1

[12] = tested on: RS4-11 (B-Lymphoblastic Leukemia); test: as above
Summary of the method: as §1

[13] = tested on: MRK-nu-1 (Breast Carcinoma); test: as above
Summary of the method: as §1

[14] = tested on: NCI-H1975 (Lung Adenocarcinoma); test: as above
Summary of the method: as §1

[15] = tested on: SUP-HD1 (Hodgkin's Lymphoma); test: as above
Summary of the method: as §1

[16] = tested on: JJN-3 (Plasma Cell Myeloma); test: as above
Summary of the method: as §1

[17] = tested on: HT-3 (Cervical Carcinoma); test: as above
Summary of the method: as §1

[18] = tested on: BT-474 (Breast Carcinoma); test: as above
Summary of the method: as §1

[19] = tested on: KNS-62 (Squamous Cell Lung Carcinoma); test: as above
Summary of the method: as §1
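Wherever Bliss excess, mean over the matrix is given: after 72 h of two-drug dosing.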

SMILES	Bliss excess [1]	Bliss excess [2]	Bliss excess [3]	Bliss excess [4]	Bliss excess [5]	Bliss excess (MG-63 (Osteosarcoma))	Bliss excess [6]	Bliss excess [7]	Bliss excess [8]	Bliss excess [9]	combination Emax [10]	combination Emax [11]	combination Emax [12]	combination Emax [13]	combination Emax [14]	combination Emax [15]	combination Emax [16]	combination Emax [17]	combination Emax [18]	combination Emax [19]
C[C@@H](c1ccc2nccn2c1)n1nnc2ncc(-c3cnn(C)c3)nc21 [Savolitinib] + Cc1c2c(nn1C)CSCc1cc(n(C)n1)CSc1cc(c3ccccc3c1)OCCCc1c(C(=O)O)n(C)c3c-2c(Cl)ccc13 [AZD5991] (first compound max 1 µM, 7x7, partner max 1 µM)	-0.0199	-0.0338	-0.0244	-0.05	-0.0384	0.0065	0.0216	-0.0262	-0.0203	-0.0126	0.165	0.141	0.435	1	0.146	0.62	0.992	0.207	0.628	0.141
Cc1cc2ncnn2cc1Nc1ncc2c(n1)n(C1CCOCC1)c(=O)n2C [AZD7648] + CCN(CCO)CCCOc1ccc2c(Nc3cc(CC(=O)Nc4cccc(F)c4)[nH]n3)ncnc2c1 [AZD2811] (first compound max 10 µM, 7x7, partner max 1 µM)	0.0187	0.0287	-0.0042	0.0506	0.0202	0.0401	0.0369	0.0132	0.0321	0.0652	0.31	0.414	0.968	0.824	0.384	0.434	0.308	0.231	0.237	0.326
CN(CCO)CC[C@H](CSc1ccccc1)Nc1ccc(S(=O)(=O)NC(=O)c2ccc(N3CCC([C@@H](O)c4ccccc4-c4ccc(Cl)cc4)CC3)cc2)cc1S(=O)(=O)C(F)(F)F [AZD4320] + CCN(CCO)CCCOc1ccc2c(Nc3cc(CC(=O)Nc4cccc(F)c4)[nH]n3)ncnc2c1 [AZD2811] (first compound max 1 µM, 7x7, partner max 1 µM)	-0.051	0.191	0.0289	0.0476	0.151	0.0838	0.0065	0.129	-0.015	0.0078	0.215	0.993	1	0.863	0.411	0.966	0.904	0.177	0.319	0.207
COc1cc2ncnc(Nc3ccc(F)c(Cl)c3)c2cc1OCCCN1CCOCC1 [Gefitinib] + CC(C)n1c(=O)n(C)c2cnc3cc(F)c(-c4ccc(OCCCN5CCCCC5)nc4)cc3c21 [AZD1390] (first compound max 10 µM, 7x7, partner max 0.3 µM)	-0.0867	-0.0689	-0.0191	-0.0683	-0.0185	-0.0772	-0.0521	-0.0495	-0.0135	-0.0688	0.619	0.201	0.168	0.443	0.419	0.382	0.236	0.0187	0.485	0.0888
Cc1cc2ncnn2cc1Nc1ncc2c(n1)n(C1CCOCC1)c(=O)n2C [AZD7648] + C[C@@H]1COCCN1C2=NC(=NC(=C2)C3(CC3)[S@](=N)(=O)C)C4=C5C=CNC5=NC=C4 [AZD6738] (first compound max 10 µM, 7x7, partner max 10 µM)	-0.0153	-0.0479	0.0441	-0.0375	-0.0051	0.0557	-0.0379	-0.0185	0.0096	0.0285	0.531	0.808	0.871	0.633	0.423	0.751	0.694	0.536	0.24	0.526
Cc1nc(Nc2ncc(C(=O)Nc3c(C)cccc3Cl)s2)cc(N2CCN(CCO)CC2)n1 [Dasatinib] + CC(=O)Nc1cccc(-n2c(=O)n(C3CC3)c(=O)c3c(Nc4ccc(I)cc4F)n(C)c(=O)c(C)c32)c1 [Trametinib] (first compound max 2 µM, 7x7, partner max 1 µM)	-0.0593	-0.0711	-0.132	-0.0782	0.0148	-0.0066	0.0135	-0.0386	-0.0221	-0.0221	0.806	0.205	0.236	0.254	0.662	0.202	0.446	0.157	0.0101	0.564
C[C@@H](c1ccc2nccn2c1)n1nnc2ncc(-c3cnn(C)c3)nc21 [Savolitinib] + CC1(C)CCC(CN2CCN(c3ccc(C(=O)NS(=O)(=O)c4ccc(NCC5CCOCC5)c([N+](=O)[O-])c4)c(Oc4cnc5[nH]ccc5c4)c3)CC2)=C(c2ccc(Cl)cc2)C1 [Venetoclax] (first compound max 1 µM, 7x7, partner max 1 µM)	-0.0336	-0.0822	-0.013	0.034	-0.012	-0.0157	-0.0253	-0.0258	-0.0159	-0.0988	0.186	0.306	1	0.449	0.126	0.792	0.234	0.137	0.0943	0.0888
Cc1cc2ncnn2cc1Nc1ncc2c(n1)n(C1CCOCC1)c(=O)n2C [AZD7648] + C=CCn1c(=O)c2cnc(Nc3ccc(N4CCN(C)CC4)cc3)nc2n1-c1cccc(C(C)(C)O)n1 [AZD1775] (first compound max 10 µM, partner max 1 µM)	-0.0972	-0.0126	-0.0282	-0.0943	-0.0726	0.0269	0.0026	-0.0568	0.0185	-0.0101	0.492	0.8	0.952	0.596	0.421	0.785	0.704	0.401	0.324	0.314
